Measurements: patent US20180326080A1, “POLYMER-BASED THERAPEUTICS FOR INDUCTIVE BROWNING OF FAT” (Purdue Research Foundation, priority 2015, published 2018)

Assays:
[1] = tested on: cultured white adipocytes; assay: Notch inhibition and brown fat gene expression in cultured white adipocytes; format: cell-based; conditions: vs DMSO
Text: (§1) Pharmacological inhibition of Notch signaling induces browning of white adipocytes during in vitro culture. Notch signaling is inhibited in cultured white adipocytes with the γ-secretase inhibitor DAPT (N—[N-(3,5-difluorophenacetyl)-1-alanyl]-S-phenylglycine t-butyl ester).

[2] = tested on: cultured white adipocytes; assay: Oxygen consumption rate of adipocytes treated with DAPT; format: cell-based; conditions: vs adipocytes treated with DMSO
Text: as §1

[3] = tested on: diet induced obese (DIO) mouse model; assay: Local injection of DBZ-NPs into inguinal WAT of diet-induced obese mice; format: in vivo; conditions: in solution and nontargeted NP forms, vs nontreated obese mice
Description: All procedures regarding animal maintenance and experimental use were performed according to the regulation presented by Purdue University's Animal Care and Use Committee. 10-week-old male die-induced obese (DIO) mice with the C57BL/6 background were purchased from Taconic and housed under normal condition at Purdue University. High-fat diet (Research Diets #D12492, 60% fat) was used to induce and maintain obesity in the mice. Mice with average body weight of 36 g at 14 weeks started to receive nanoparticle treatment. […]
For GTT, mice were intraperitoneally injected with 100 mg/ml D-glucose (2 g kg-1 body weight) after 16 h fasting. Blood was drawn from tails and glucose levels were measured by a glucometer (Accu-Check Active, Roche). […] Glucose concentrations were measured in the blood drawn from tails. […]
Serum levels of free fatty acids, glucose, cholesterol, and triglycerides from fasted DIO mice after treatment of nanoparticles for 5 weeks were examined by standard kits from Randox Laboratories. The insulin level in the serum was measured by ELISA according to the manufacturer's instructions (ALPCO). […]
Total RNA was extracted from cells or tissues through Trizol (Life Technologies) in accordance with the manufacture's protocol. […] The quantitative PCR was performed on the Roche Light Cycler 96 PCR System (Roche). […]

Structure (SMILES)	Notch signaling (mRNA levels of Notch targets) [1]	expression of brown fat specific genes Ucp1, Cidea, Prdm16 and Ppargc1a [1]	oxygen consumption rate (OCR) [2]	body weight gain [3]
C[C@H](NC(=O)Cc1cc(F)cc(F)c1)C(=O)N[C@H](C(=O)OC(C)(C)C)c1ccccc1 [DAPT, (N—[N-(3,5-difluorophenacetyl)-1-alanyl]-S-phenylglycinet-butyl ester)]	inhibited Notch signaling	upregulated	higher	
CN(CCOc1ccc(CC2SC(=O)NC2=O)cc1)c1ccccn1 (stereo not shown) [Rosi]				no difference in body weight gain
